Test results reported in patent US20020072499A1, “Treatment with small peptides to effect antifibrotic activity” (Histatek, Inc., priority 1999, published 2002).
Peptide text beside a SMILES is read from it. * marks the point of attachment. For = O=C*

Key:
[1] = system: murine model of allergen-induced chronic asthma subjected to repeated allergic challenge (Balb/C mice); settings: mouse, in vivo
Protocol: This example reports the results of tests wherein mice having induced chronic asthma and having been treated in accord with the present invention are subsequently further challenged intranasally (“IN”) with OVA. Materials were the same as in Example 1. Balb/C mice were repeatedly immunized with OVA over a six month period as in Example 1. Thereafter, the mice were treated with 50 μg of HKX per dose intranasally for eight doses over a 16 day period, as in example 1. Then, a further regimen administered a 50 μg dose of HK-X 15-30 minutes prior to intranasal OVA challenge. This regimen was repeated for a total of three days. On the day after the last treatment the mice were sacrificed. HK-X was prepared in the same manner as in Example 1. […] The trachea and left lung (upper and lower lobes) were collected and fixed in 10% formalin at 20° C. for 15 hr. After embedding in paraffin, the tissues were cut into 5 μm sections. Eosinophils were stained in the lung tissue with Modified Discombe's Solution. […] Occlusion of the airway diameter by mucus was assessed on a semiquantitative scale ranging from 0 to 5+. For each mouse, individuals blinded to the protocol design assessed 10 airway sections randomly distributed throughout the left lung for mucus occlusion by morphometric analysis. […]

BALB/c mice = settings: mouse, in vivo
[2] = system: murine model of allergen-induced chronic asthma (OVA immunized BALB/c mice); settings: mouse, in vivo
Source text: The chronic murine model of asthma was used to test the effects of f-Met-Leu-Phe-Phe (HK-X) on persistent asthma. This murine system is a model of chronic asthma where there is enormous infiltration of inflammatory cells in association with outer boundaries of the airway basal lamina. An immunization period of five (5) months during which mice were subjected to an initial immunization procedure during the first month followed by weekly intranasal challenges with OVA established a condition of persistent asthma in the mice. […] Immunized mice were treated with HK-X eight times over a sixteen day period (i.e., every other day). […]
Airway Plug scores—by using a scoring system from + to ++++, the severity of mucus secretion into medium and large-sized airways could be measured according to the previous report (Henderson et al., J. Exp. Medicine, vol. 1-84, pp. 1483-94, Oct. 1996).
Fraction of Epithelial Cells Containing Mucous Granules—was evaluated by randomly counting the number of epithelial cells containing mucus out of 100 epithelial cells in medium to large airways (600 μm to 1,000 μm diameters). A total of 10 fields were counted in different lung lobes and the mean score was tabulated. […]
Numbers of various cell types—eosinophils and neutrophils were quantified by counting the numbers per high power field (40×) in an area of 2,200 u^2 in association with airways. […]

in vivo = settings: mouse
Protocol: The HK-X/OVA group of animals received HK-X dosage of 0.4 mg/Kg body weight (50 ug per 20 gm body weight per day) while the saline group received the same dosage of HK-X without OVA. […] Therefore, to maintain the plasma levels during the course of the allergen challenge, these mice received additional HK-X doses intranasally immediately before OVA challenge.

With `CSCC[C@H](NC=O)C(=O)N[C@@H](CC(C)C)C(=O)N[C@@H](Cc1ccccc1)C(=O)N[C@@H](Cc1ccccc1)C(=O)O` [HK-X, f-Met-Leu-Phe-Phe] (For-MLFF-OH; C-terminus assumed) the “number of eosinophils in the lung tissues” value [1] was 0.75±0.18 cells per 2,200 μm^2, the “pulmonary tissue of control mice administered HK-X in saline” value [1] was “free of inflammatory cells and fibrotic collagen deposits” and the “adverse reactions or signs of sickness” value (BALB/c mice) was “No adverse reactions or signs of sickness were observed”. The “pulmonary tissue of control mice administered HK-X in saline” value [2] was “free of inflammatory cells and fibrotic collagen deposits” and the half-life (in vivo) was less than 30 min.
